Data as given in ChEMBL document CHEMBL6127117, “Divergent Total Synthesis of Isoflavone Natural Products and Their Potential as Therapeutic Agents for TTR Amyloidosis” (J Nat Prod, 2024).
Active and inactive are the calls of the source. The calls are words filed in the database; no cut-off is given here.

Key:
[1] = test system: Transthyretin (Homo sapiens), P02766 [V50M]; assay: Inhibition of acid mediated TTR V30M mutant (unknown origin) aggregation under pH 4.7 at 20 uM measured upto 6 days by thioflavin-T fluorescence assay; conditions: time <= 6.0 day
[2] = biological target: Transthyretin (Homo sapiens) (UniProt P02766); assay: Binding affinity to TTR in human plasma assessed as stabilization of TTR tetramer by measuring fluorescence intensity measured after 6 hrs by absorbance based analysis; assay type: cell-free; conditions: dose 20-100 µM
[3] = biological target: Transthyretin (Homo sapiens) (UniProt P02766); assay: Binding affinity to TTR in human plasma assessed as stabilization of TTR tetramer by measuring fluorescence intensity at 100 uM measured after 6 hrs by absorbance based analysis relative to control; assay type: cell-free
[4] = biological target: Transthyretin (Homo sapiens) (UniProt P02766); assay: Binding affinity to TTR in human plasma assessed as stabilization of TTR tetramer by measuring fluorescence intensity at 50 uM measured after 6 hrs by absorbance based analysis relative to control; assay type: cell-free
[5] = biological target: Transthyretin (Homo sapiens) (UniProt P02766); assay: Binding affinity to TTR in human plasma assessed as stabilization of TTR tetramer by measuring fluorescence intensity at 20 uM measured after 6 hrs by absorbance based analysis relative to control; assay type: cell-free

Compound | inhibition [1] | Activity [2] | Activity [3] [%] | Activity [4] [%] | Activity [5] [%]
CC1(C)C=Cc2c(cc(O)c3c(=O)c(-c4ccc(O)cc4)coc23)O1 | Active | Dose-Dependent Effect | – | – | –
C=CC(C)(C)c1cc(-c2coc3cc4c(c(O)c3c2=O)C=CC(C)(C)O4)ccc1O | inactive | Dose-Dependent Effect | – | – | –
CC(C)=CCc1cc(-c2coc3c4c(cc(O)c3c2=O)OC(C)(C)C=C4)ccc1O | inactive | Dose-Dependent Effect | – | – | –
CC(C)=CCc1c2c(c3occ(-c4ccc(O)cc4O)c(=O)c3c1O)C=CC(C)(C)O2 | Active | Dose-Dependent Effect | 35 | 50 | 70
CC1(C)C=Cc2c(cc3occ(-c4ccc(O)cc4)c(=O)c3c2O)O1 | Active | Dose-Dependent Effect | – | – | –
CC(C)=CCOc1ccc(-c2coc3cc4c(c(O)c3c2=O)C=CC(C)(C)O4)cc1 | inactive | Dose-Dependent Effect | – | – | –
CC(C)=CCc1c2c(c(O)c3c(=O)c(-c4ccc(O)c(O)c4)coc13)C=CC(C)(C)O2 | Active | Dose-Dependent Effect | – | – | –
CC(C)=CCc1cc(-c2coc3cc4c(c(O)c3c2=O)C=CC(C)(C)O4)ccc1O | inactive | Dose-Dependent Effect | – | – | –
CC(C)=CCOc1ccc(-c2coc3c4c(cc(O)c3c2=O)OC(C)(C)C=C4)cc1 | inactive | Dose-Dependent Effect | – | – | –
